Assay results published in patent US11266626B2, “Reduction of ER-MAM-localized APP-C99 and methods of treating alzheimer's disease” (THE TRUSTEES OF COLUMBIA UNIVERSITY IN THE CITY OF NEW YORK, priority 2015, dated 2022).
Entries after “also recorded” stand apart in the source; their conditions may differ.

Experiments:
[1] = system: acid (aSMase) and neutral (nSMase) sphingomyelinases; experiment: Analysis of sphingomyelinase activity; format: cell-based, human; settings: SH-SY5Y cells; DAPT 10 μM
Experimental: (§1) One hundred μg of protein were assayed in 100 mM of the appropriate buffer (Tris/glycine for pH 7.0-9.0 and sodium acetate for pH 4.0-5.0), 1.55 mM Triton X-100, 0.025% BSA, 1 mM MgCl2, and 400 μM bovine brain sphingomyelin spiked with 22000 dpm of [3H]-bovine sphingomyelin ([…]). Reactions were carried out in borosilicate glass culture tubes at 37° C., overnight, followed by quenching with 1.2 ml of ice-cold 10% trichloroacetic acid, incubation at 4° C. for 30 min, and centrifugation at 2000 rpm at 4° C. for 20 min. One ml of supernatant was transferred to clean tubes, 1 ml of ether was added, the mixture vortexed, and centrifuged at 2000 rpm for 5 min. Eight hundred μl of the bottom phase was transferred to scintillation vials, 5 ml of Scintiverse BD (Fisher Scientific, Fair Lawn, N.J.) was added, and samples were counted. […]
(§2) Reactions were carried out in borosilicate glass culture tubes at 37° C., overnight, followed by quenching with 1.2 ml of ice-cold 10% trichloroacetic acid, incubation at 4° C. for 30 min, and centrifugation at 2000 rpm at 4° C. for 20 min. […] Eight hundred μl of the bottom phase was transferred to scintillation vials, 5 ml of Scintiverse BD (Fisher Scientific, Fair Lawn, N.J.) was added, and samples were counted. […]

SH-SY5Y cells = experiment: Mitochondrial content and biogenesis (VDAC western blot; qRT-PCR); format: cell-based, human
PS-DKO cells [2] = experiment: Conversion of fluorescent sphingomyelin to ceramide in mitochondrial membranes (TLC); format: cell-based, mouse; settings: PS-DKO (presenilin-mutant) cells; BI
Experimental: SMase activity was therefore measured in MEFs lacking APP and APLP2 (APP-DKO) (28). […] To test this, SMases was measured in PSDKO cells treated with α- and β-secretase inhibitors, to abrogate the production of C83 and C99, respectively. As controls, the γ-secretase products Aβ and AICD were also added back (FIG. 9G). […] For corroboration in vivo, PS-DKO and control cells were incubated with a fluorescent analog of sphingomyelin and analyzed its conversion to ceramide.
To explore this further, PS-DKO and control cells were incubated with a fluorescent sphingomyelin (FL-SM) and its localization and conversion to ceramide in mitochondrial membranes was analyzed by thin-layer chromatography (TLC).
To explore this further, we incubated PS-DKO and control cells with fluorescent sphingomyelin and analyzed its localization and conversion to ceramide in mitochondrial membranes by thin-layer chromatography (TLC).

[3] = system: acid (aSMase) and neutral (nSMase) sphingomyelinases; experiment: Analysis of sphingomyelinase activity; format: cell-based, mouse; settings: PS-DKO MEFs; BI 100 nM; Aβ40:Aβ42 10:1, 6 ng/ml total
Experimental: as §1, §2

PS-DKO MEFs = experiment: Uptake of Bodipy-labeled fluorescent cholesterol; format: cell-based, mouse
Experimental: To measure uptake of fluorescent cholesterol, cultured cells were incubated with 1 μM Bodipylabeled cholesterol (Avanti Lipids; 810255P) for 12 h. Alternatively, Bodipy-cholesterol was complexed with methyl-β-cyclodextrin at a 1:10 molar ratio of sterol:cyclodextrin and added to cultured cells to a final concentration of 25 μg/ml for 6-8 h. Cholesterol droplets were visualized by microscopy and fluorescence was quantified by ImageJ.

PS-DKO cells [4] = experiment: Staining of lipid droplets with LipidTox Green; format: cell-based, mouse; settings: BI 100 nM, desipramine 10 μM, GW4869 5 μM, 12-16 h, Gleevec 10 μM
Experimental: (§3) Quantification of total cholesterol and cholesteryl esters was performed using the Cholesterol/Cholesteryl Ester Quantitation kit from Calbiochem (428901). Staining of lipid droplets Staining of lipid droplets was performed using HCS LipidTox™ Deep Green neutral lipid stain (Invitrogen H34475) according to the manufacturer's instructions. Lipid droplet staining was quantified using ImageJ. The different values represent the product of the intensity and the area covered by the fluorescent signal above background in every cell examined.
(§4) Staining of lipid droplets was performed using HCS LipidTox™ Deep Green neutral lipid stain (Invitrogen H34475) according to the manufacturer's instructions. Lipid droplet staining was quantified using ImageJ. The different values represent the product of the intensity and the area covered by the fluorescent signal above background in every cell examined.

[5] = system: cortical neurons and astrocytes from PS1-KI M146V mice; experiment: Staining of lipid droplets with LipidTox Green; format: cell-based, mouse; settings: 100 nM BI
Experimental: as §3, §4

APP C-terminal fragments = experiment: Western blot of APP C-terminal fragments in total homogenates; format: cell-based, mouse; settings: PS-DKO MEFs total homogenates; BI
Experimental: Purification of ER, MAM, and mitochondria was performed and analyzed as described (4).
Purification of ER, MAM, and mitochondria was performed and analyzed as described Area-Gomez et al., 2009, the contents of which is hereby incorporated by reference in its entirety.
Purification of ER, MAM, and mitochondria was performed and analyzed as described (Area-Gomez et al, 2009). For C99 detection, samples were run in 4-12% Bis-Tris gels (Criterion XT Precast Midi Gels, BioRad) in XT MES buffer.

Compound	SMase activity [1]	mitochondrial content or biogenesis (SH-SY5Y cells)	increase in ceramide derived from fluorescent sphingomyelin at mitochondria (PS-DKO cells [2])	acid (aSMase) and neutral (nSMase) sphingomyelinase activity / sphingolipid turnover [3]	uptake of Bodipy-labeled fluorescent cholesterol (PS-DKO MEFs)	number of lipid droplets (LDs) (PS-DKO cells [4])	number of lipid droplets (LDs) [5]	accumulation of APP C-terminal fragments (APP C-terminal fragments)
C[C@H](NC(=O)Cc1cc(F)cc(F)c1)C(=O)N[C@H](C(=O)OC(C)(C)C)c1ccccc1 [DAPT]	significantly increased SMase activities; also recorded: increase in SMase activity	without altering mitochondrial content or biogenesis	–	–	–	–	–	–
C[C@@H](NC(=O)c1cc(C(=O)N[C@@H](Cc2ccccc2)[C@H](O)CNC2CC2)cc(N(C)S(C)(=O)=O)c1)c1ccccc1 [BI, β-secretase inhibitor IV]	–	–	this increase disappeared; also recorded: the elevated deposition of ceramide at mitochondria disappeared	reduced significantly; also recorded: attenuation of sphingolipid turnover; also recorded: attenuation of sphingolipid synthesis and hydrolysis by sphingomyelinases	reduced uptake	reduced the number of LDs	reduced the number of LDs	eliminates the accumulation of APP C-terminal fragments
